In paper PMC4832822, “Investigating the Influence of (Deoxy)fluorination on the Lipophilicity of Non‐UV‐Active Fluorinated Alkanols and Carbohydrates by a New log P Determination Method” (Angewandte Chemie (International Ed. in English), 2015):
“And” between values parts separate entries of the source, which are not always exact repeats. Identical values can stand only once. Like-named read-outs stand apart in the source and are kept apart here.

Columns and labels:
[1] = cited from earlier work
[2] = milogP calculated using Molinspiration Cheminformatics; settings: Table SI14
[3] = log P determination by 19F NMR shake-flask method with internal fluorinated reference (octanol/water); settings: for ΔlogP (exp. logP vs logP lit): Table SI12
[4] = octanol/water, error (mean logP to three decimals), reference TFE (+0.36)
[5] = octanol/water, logP, 19F NMR, 25 °C, average value
[6] = octanol/water, logP, single experiment, reference TFE (+0.36)
[7] = octanol/water, Average logP, 25 °C, reference TFE (+0.36)
[8] = ref chemidplus database and N. Muller 1986
[9] = shake-flask, 1H or 19F NMR, temperature not reported, ref N. Muller, J. Pharm. Sci. 1986

SMILES	ΔlogP (milogP vs logP exp) [2]	logP [3, 4]	logP [3, 5]	logP [3, 6]	Average logP ([3]; 25 °C, reference TFE (+0.36))	ΔlogP (exp. logP vs logP lit) [3]	logP [3, 7]	other results
Oc1ccccc1F [SI4, o-fluorophenol]	+0.13	1.7	1.7	1.7				logP (lit) ([1]; method and temperature not provided, ref C. Hansch, A. Leo, Substituent constants, Wiley 1979): +1.64; logP (lit) ([1]; ref chemidplus database, Hansch, Leo 1979 and Fujita, Iwasa, Hansch 1964 (shake-flask, spectrophotometer, 25 ± 5 °C)): +1.71
OC(C(F)(F)F)C(F)(F)F [compound 7]		1.69		1.69		+0.03	1.69	logP (lit) ([1]; method and temperature not provided, ref U.S. National Library of Medicine online database (chemidplus)): +1.66
OCCC(F)(F)F [compound 12]	+0.47	0.414		0.413		+0.02	0.41	logP (lit) [1, 8]: +0.39
CC(O)C(F)(F)F (stereo not drawn) [compound 6]	+0.27	0.715	0.7	0.712			0.71	logP (lit) ([1]; ref chemidplus database, Dillingham et al. 1973 and Hansch, Leo 1979): +0.71; logP (lit) [1, 9]: +0.70

Now from value to molecule, other results behind:

ΔlogP (milogP vs logP exp) [2]	logP [3, 4]	logP [3, 5]	logP [3, 6]	Average logP ([3]; 25 °C, reference TFE (+0.36))	ΔlogP (exp. logP vs logP lit) [3]	logP [3, 7]	SMILES	other results
+0.05	1.2	1.2	1.2	+1.20	-0.03	1.2	OCC(F)(F)C(F)(F)F [compound 13, CF3CF2CH2OH]	logP (lit) ([1]; ref chemidplus database, Hansch, Leo 1979 and Leo, Elkins, Chem. Rev. 1971): 1.23; logP ([3]; octanol/water, average logP, mA 2.0 mg, mREF 0.8 mg, reference CF3CH2OH): 1.2; logP ([3]; octanol/water, average logP, mA 10.0 mg, mREF 4.0 mg): 1.2; logP ([3]; octanol/water, average logP, mA 70.0 mg, mREF 30.0/70.0 mg): 1.18; logP ([3]; octanol/water, average logP, mA 120.0 mg, mREF 60.0 mg): 1.18; logP ([3]; octanol/water, logP, single experiment, mA 2.0 mg, mREF 0.8 mg, reference CF3CH2OH): 1.2; logP ([3]; octanol/water, logP, single experiment, mA 10.0 mg, mREF 4.0 mg): 1.2; logP ([3]; octanol/water, logP, single experiment, mA 70.0 mg, mREF 30.0/70.0 mg): 1.18; logP ([3]; octanol/water, logP, single experiment, mA 120.0 mg, mREF 60.0 mg): 1.17; mean logP ([3]; reference TFE (+0.36)): 1.200; logP ([3]; single experiment, mA 2.0 mg, mREF 0.8 mg, reference CF3CH2OH): 1.200; logP ([3]; single experiment, mA 10.0 mg, mREF 4.0 mg): 1.200 and 1.195; logP ([3]; single experiment, mA 70.0 mg, mREF 30.0/70.0 mg): 1.179; logP ([3]; single experiment, mA 120.0 mg, mREF 60.0 mg): 1.178 and 1.174; logP ([3]; single experiment, reference TFE (+0.36)): +1.200 and +1.199
+0.24	0.91	0.91	0.918	+0.91	+0.01	0.91	OCCCC(F)(F)F [compound 23, 4,4,4-trifluoro-1-butanol]	logP (lit) [1, 8]: +0.90; logP ([3]; octanol/water, 19F NMR, 25 °C, average value): +0.91
+0.43	1.22	1.22	1.22	+1.22	+0.07	1.22	OCCCCC(F)(F)F [compound 35]	logP (lit) [1, 9]: +1.15
